From patent US20080213338A1, “IMPLANT STENT WITH A RETINOID FOR IMPROVED BIOCOMPATIBILITY” (priority 1997, published 2008)

Test system: pigmented rabbits
Test: Retinal plug implantation in vitrectomized rabbit eyes, histopathology (PAS stain) at 28 days
Format: in vivo
Settings: polylactic acid plug containing 10% by weight retinoid, inserted into vitreous through sclera; intravitreal injection of 500,000 human RPE cells; 28 days after insertion
Procedure: Retinal plugs were manufactured from poly(D,L)lactic acid (PLA) with an intrinsic viscosity of 0.6 DL/G. The retinoid 6-[(4,4-dimethyl thiochroman-6-yl)ethynl]nicotinic acid (AGN190299) was mixed with polymer in a three-dimensional mixer. The mixture was then extruded at 85° C. into a homogeneous rod. The retinoid was incorporated into the polymeric plug at a concentration of 10%. […] A 0.5 mm hole was drilled into the distal end of the plug to allow for suture fixation to the sclera. Placebo plugs containing no retinoid were also manufactured to the same dimensions. The average weight of the plugs was 8 mg. All plugs were sterilized by gamma irradiation at l Mrad.
The rabbit eyes were vitrectomized and the retinal plugs with or without incorporated retinoid were inserted through a sclerotomy 3 mm posterior to the corneoscleral limbus. The plugs were then fixated with the suture used to close the sclerotomy. An intravitreal injection of 500,000 human RPE cells was given to simulate traction retinal detachment. The rabbits were sacrificed at 28 days and histopathology was done.
These observed results are shown in FIG. 7 for the placebo plug and in FIG. 8 for the plug 10 including the retinoid as hereinabove described.

CC1(C)CCSc2ccc(C#Cc3ccc(C(=O)O)cn3)cc21 [AGN190299, 6-[(4,4-dimethylthiochroman-6-yl)ethynyl]nicotinic acid]
fibrous inflammation of the capsule surrounding the plug (histopathology, PAS stain): very little fibrous inflammation
